What was measured:
perfused pancreas = assay: Perfused pancreas from treated diabetic Zucker rats; type: in vivo, rat
Procedure: (§1) A study was performed in a colony of diabetic Zucker rats housed in Vancouver, Canada. This is a model of hyperinsulinemia and impaired glucose tolerance/mild type 2 diabetes. The aim was to investigate whether treatment with the test compound 6-chloro-3-(1-methylcylodopropyl)amino-4H-thieno[3,2-e]-1,2,4-thiadiazine 1,1-dioxide could lead to a reduction in hyperinsulinemia and an improvement in insulin secretory responsiveness to glucose in the perfused pancreas. Male diabetic Zucker rats were dosed for 3 weeks with either 1.5 mg/kg 6-chloro-3-(1-methylcylodopropyl)amino-4H-thieno[3,2-e]-1,2,4-thiadiazine 1,1-dioxide bid (n=8) or vehicle (n=16). Oral glucose tolerance was assessed in the animals the day after the last dose was given.

diabetic Zucker rats = assay: Oral glucose tolerance test after 3 weeks dosing in diabetic Zucker rats; type: in vivo, rat; conditions: male diabetic Zucker rats, 1.5 mg/kg bid for 3 weeks, vs vehicle
Procedure: as §1

[1] = biological target: KATP-channels on pancreatic beta-cells (Homo sapiens, UniProt Q09428); conditions: by activation of KATP-channels on pancreatic beta-cells; Pirotte et al. 1993, 1994; cited from earlier work
KATP-channels on pancreatic beta-cells, sequence (Q09428 whole entry): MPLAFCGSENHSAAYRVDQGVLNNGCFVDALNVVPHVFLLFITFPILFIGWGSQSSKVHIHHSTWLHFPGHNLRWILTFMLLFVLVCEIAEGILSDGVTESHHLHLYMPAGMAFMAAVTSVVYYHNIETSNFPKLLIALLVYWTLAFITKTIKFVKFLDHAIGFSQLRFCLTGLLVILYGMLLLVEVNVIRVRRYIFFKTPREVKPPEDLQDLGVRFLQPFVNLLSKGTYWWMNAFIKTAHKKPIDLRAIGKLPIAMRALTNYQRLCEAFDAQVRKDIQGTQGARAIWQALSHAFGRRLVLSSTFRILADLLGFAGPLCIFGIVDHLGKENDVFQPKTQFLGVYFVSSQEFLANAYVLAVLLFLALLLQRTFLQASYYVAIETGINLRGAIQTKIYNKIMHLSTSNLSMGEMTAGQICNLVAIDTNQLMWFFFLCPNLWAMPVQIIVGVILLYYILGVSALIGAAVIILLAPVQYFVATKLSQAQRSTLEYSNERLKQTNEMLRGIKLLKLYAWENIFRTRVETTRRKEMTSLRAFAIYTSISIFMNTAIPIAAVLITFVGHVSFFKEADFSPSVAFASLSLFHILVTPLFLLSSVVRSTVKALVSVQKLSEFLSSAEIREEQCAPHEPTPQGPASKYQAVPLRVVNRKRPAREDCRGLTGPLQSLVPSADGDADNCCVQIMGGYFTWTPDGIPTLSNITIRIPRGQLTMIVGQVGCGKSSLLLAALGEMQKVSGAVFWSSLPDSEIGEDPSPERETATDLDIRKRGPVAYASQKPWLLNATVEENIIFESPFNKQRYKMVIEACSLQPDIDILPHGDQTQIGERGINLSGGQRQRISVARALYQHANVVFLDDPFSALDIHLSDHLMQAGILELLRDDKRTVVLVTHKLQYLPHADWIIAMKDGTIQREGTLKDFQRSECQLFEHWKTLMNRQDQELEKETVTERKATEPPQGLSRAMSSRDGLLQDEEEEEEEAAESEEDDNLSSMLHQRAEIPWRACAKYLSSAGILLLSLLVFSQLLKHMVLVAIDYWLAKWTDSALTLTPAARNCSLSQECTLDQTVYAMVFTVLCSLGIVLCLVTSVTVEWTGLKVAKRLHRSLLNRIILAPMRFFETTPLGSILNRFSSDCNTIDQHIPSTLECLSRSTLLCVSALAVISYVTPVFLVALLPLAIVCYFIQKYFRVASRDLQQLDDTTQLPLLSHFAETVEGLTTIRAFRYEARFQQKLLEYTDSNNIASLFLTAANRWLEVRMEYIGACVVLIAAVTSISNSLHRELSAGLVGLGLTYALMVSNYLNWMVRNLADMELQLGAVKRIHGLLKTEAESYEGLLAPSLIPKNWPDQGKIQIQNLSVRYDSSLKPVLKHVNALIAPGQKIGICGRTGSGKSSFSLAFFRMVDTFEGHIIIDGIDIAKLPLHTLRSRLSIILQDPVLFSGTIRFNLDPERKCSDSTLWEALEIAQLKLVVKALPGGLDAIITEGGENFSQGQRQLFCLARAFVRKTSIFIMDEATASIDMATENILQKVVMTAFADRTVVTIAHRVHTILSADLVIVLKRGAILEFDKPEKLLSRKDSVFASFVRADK
KATP-channels on pancreatic beta-cells, sequence (Q14654 whole entry partner): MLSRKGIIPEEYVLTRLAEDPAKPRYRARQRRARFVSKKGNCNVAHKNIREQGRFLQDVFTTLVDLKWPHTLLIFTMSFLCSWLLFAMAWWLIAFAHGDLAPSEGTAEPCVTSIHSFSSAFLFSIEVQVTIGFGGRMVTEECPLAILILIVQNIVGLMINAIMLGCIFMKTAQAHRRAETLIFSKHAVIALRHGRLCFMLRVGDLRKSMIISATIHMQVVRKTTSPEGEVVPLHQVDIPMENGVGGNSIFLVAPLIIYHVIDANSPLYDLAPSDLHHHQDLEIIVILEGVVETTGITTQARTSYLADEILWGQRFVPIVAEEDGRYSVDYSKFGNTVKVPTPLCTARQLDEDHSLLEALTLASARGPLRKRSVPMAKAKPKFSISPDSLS

CC1(NC2=NS(=O)(=O)c3sc(Cl)cc3N2)CC1 [6-chloro-3-(1-methylcylodopropyl)amino-4H-thieno[3,2-e]-1,2,4-thiadiazine 1,1-dioxide]
hyperinsulinemia in perfused pancreas (perfused pancreas; pancreata from rats treated 1.5 mg/kg bid for 3 weeks, evaluated two days after OGTT): reduced hyperinsulinemia
insulin secretory responsiveness to glucose in perfused pancreas (perfused pancreas; pancreata from treated rats, two days after OGTT, data expressed relative to baseline): improved insulin secretory responsiveness to glucose
oral glucose tolerance (diabetic Zucker rats; assessed the day after the last dose): significantly improved
hyperinsulinemia (associated with the oral glucose tolerance test) (diabetic Zucker rats; day after the last dose): significant reduction in hyperinsulinemia

CC1=Nc2ccc(Cl)cc2S(=O)(=O)N1 [diazoxide, 7-chloro-3-methyl-2H-1,2,4-benzothiadiazine 1,1-dioxide]
insulin release [1]: inhibit insulin release

Reference: US20030109519A1, “Use of selective potassium channel openers” (priority 2001, published 2003)
